Values after ≈ are worked out from the molar mass of the structure shown. Like-named read-outs stand apart in the source and are kept apart here.
What was measured:
E. coli GuaB = E. coli GuaB (Escherichia coli, UniProt P0ADG7); assay: GuaB biochemical IC50
in vitro = assay type: cell-based, human; details: human
Procedure: (§1) Primary human hepatocytes were plated on 384-well, collagen-coated plates in incubation media with no serum or with 10% fetal bovine serum (FBS). Eighteen hours later, cells were treated with the test article at seven concentrations starting at 100 µM in twofold dilutions, chlorpromazine (positive control) at seven concentrations starting at 100 µM in twofold dilutions or aflatoxin (positive control) at seven concentrations starting at 25 µM in twofold dilutions. Cell viability was then assayed using the Promega Cell TiterGlo ATP Assay.

[1] = test system: Primary human hepatocytes; assay: in vitro; assay type: cell-based
Procedure: as §1

Enterococcus faecalis = assay: MIC, CLSI microdilution; assay type: cell-based; details: Enterococcus faecalis (ATCC47077); RPMI1640
Acinetobacter baumannii = assay: MIC, CLSI microdilution; assay type: cell-based; details: 20 h, M9 + casamino acids + glucose
Klebsiella pneumoniae = assay: MIC, CLSI microdilution; assay type: cell-based; details: ATCC43816, 20 h; Klebsiella pneumoniae (ATCC 43816); M9 + casamino acids + glucose
Enterobacter aerogenes = assay: MIC, CLSI microdilution; assay type: cell-based; details: Klebsiella aerogenes, 20 h; Enterobacter aerogenes (ATCC13048); M9 + casamino acids + glucose
A. baumannii 19606 [2] = assay: Fluctuation assay, frequency of spontaneous resistance; assay type: cell-based, Acinetobacter baumannii; details: for frequency of on-target resistance mutations: A. baumannii, 4× or 8× MIC, p0 method; for F.O.R.: P0 method
A. baumannii 19606 [3] = assay: Neutropenic thigh infection model with i.v. GuaBi; details: for bacterial load in thigh muscle: neutropenic CD-1 mice, A. baumannii 19606, i.v. infusion with PK boosters, 24 h, high dose groups; for free drug over serum-free MIC at which bactericidal: neutropenic thigh model, A. baumannii
[4] = In vivo pharmacokinetic study, 24-h i.v. infusion; parameters: species or system mouse; details: mice; for AUC(0-t): female, CD-1, mouse, whole blood, iv, read-out: exposure AUC0-24
Procedure: Two female CD-1 mice were given a 750 mg/kg of 24 h i.v. infusion dose of G2. […] Two female CD-1 mice were given a 250 mg/kg of 24-h i.v. infusion dose of G1. Another group of two mice received 250 mg/kg of 24-h i.v. infusion dose of G1 with a 150 mg/kg ABT PO dose of pretreatment at 2 h prior the i.v. infusion. Ten microliters of blood was collected accurately at 0.5, 1, 2, 4, 6, 8, and 24 h after infusion start. Blood samples were then immediately placed into labeled polypropylene micro-centrifuge tubes containing 40 µL of 1.7 mg/mL potassium (K2) EDTA in water, mixed, and then frozen and stored at −70°C until bio-analysis.
G2, G1, ABT, and 4-MP blood concentrations in mouse PK studies were determined by LC-MS/MS. All samples were prepared by protein precipitation. Chromatographic separations were achieved using an ACQUITY CM UPLC system (Waters, Milford, MA) including an ACQUITY BSM solvent delivery system, an ACQUITY SM autosampler, and an ACQUITY CM column oven. For G1, G2, and ABT, an ACQUITY UPLC HSS T3 column (2.1 × 50 mm, 1.8 µm) was used. For 4-MP, an ACQUITY UPLC BEH Amide column (2.1 × 50 mm, 1.7 µm) was used. Gradient elution that contained 0.1% formic acid in water and 0.1% formic acid in acetonitrile was used for G1, ABT, and 4-MP. Gradient elution that contained 0.1% formic acid with 2 mM ammonium formate in water/acetonitrile (vol/vol, 95:5) was used for G2. The LC flow rate was 0.6 mL/min for G1, G2, and ABT, and 0.5 mL/min for 4-MP. The sample injection volume was 1 µL for ABT, G1, and G2, and 2 µL for 4-MP. A QTrap 5500/6500 tandem mass spectrometer (SCIEX, Foster City, CA) with TurboIonSpray interface was operated in positive ionization mode with multiple reaction monitoring (MRM) for LC-MS/MS analysis. The mass spectrometer was operated at unit mass resolution for both Q1 and Q3 quadrupoles. The precursor to product ion transitions of analytes are presented as Q1/Q3 ratios for each compound: 4-MP (83.0/56.1), G1 (383.1/197.1), G2 (399.1/171.0), and ABT (135.0/80.1). The standard curves cover the ranges of 0.005 µg/mL–11.7 µg/mL, 0.005 µg/mL–33.4 µg/mL, 0.05 µg/mL–334 µg/mL, and 1.37 µg/mL–334 µg/mL for G1, G2, ABT, and 4-MP, respectively.

[5] = General cytotoxicity IC50, Serum
[6] = General cytotoxicity IC50, Serum-Free

Chain of E. coli GuaB (P0ADG7 whole entry): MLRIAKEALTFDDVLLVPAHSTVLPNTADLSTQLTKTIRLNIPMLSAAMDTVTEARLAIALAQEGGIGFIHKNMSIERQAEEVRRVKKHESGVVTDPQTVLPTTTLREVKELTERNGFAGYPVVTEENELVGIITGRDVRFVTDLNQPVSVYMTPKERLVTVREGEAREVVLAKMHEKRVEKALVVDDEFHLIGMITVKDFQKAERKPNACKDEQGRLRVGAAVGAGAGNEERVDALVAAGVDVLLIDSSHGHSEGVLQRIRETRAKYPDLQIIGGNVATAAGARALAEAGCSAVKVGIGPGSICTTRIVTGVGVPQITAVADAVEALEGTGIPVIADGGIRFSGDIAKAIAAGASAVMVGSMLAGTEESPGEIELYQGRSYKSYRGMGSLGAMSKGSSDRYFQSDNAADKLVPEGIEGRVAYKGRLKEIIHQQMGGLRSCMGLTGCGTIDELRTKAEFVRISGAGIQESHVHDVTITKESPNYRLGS

| Compound | IC50 (E. coli GuaB) [µM] | IC50 at 2 day (in vitro; [5]) [µM] | IC50 at 2 day (in vitro; [6]) [µM] | in vitro safety profile: cytotoxicity [1] | MIC (Enterococcus faecalis) [µM] | MIC (Acinetobacter baumannii) [µM] | MIC (Klebsiella pneumoniae) [µM] | MIC (Enterobacter aerogenes) [µM] | frequency of on-target resistance mutations (A. baumannii 19606 [2]) | bacterial load in thigh muscle (A. baumannii 19606 [3]) | free drug over serum-free MIC at which bactericidal (A. baumannii 19606 [3]) | AUC(0-t) ([4]; 24-h i.v. infusion 250 mg/kg, co-administered 150 mg/kg ABT) [µM·h] | exposure higher than without co-administration with ABT ([4]; 250 mg/kg 24-h i.v. infusion) | F.O.R. (A. baumannii 19606 [2]; selection 4xMIC (G1 3.1µM; G2 6.4µM)) | F.O.R. (A. baumannii 19606 [2]; selection 8xMIC (12.8µM)) | AUC(0-t) ([4]; 24-h i.v. infusion 750 mg/kg, co-administered 150 mg/kg ABT and 100 mg/kg 4-MP) [µM·h] | exposure higher than without co-administration with ABT and 4-MP ([4]; 750 mg/kg 24-h i.v. infusion) [fold] |
| --- | --- | --- | --- | --- | --- | --- | --- | --- | --- | --- | --- | --- | --- | --- | --- | --- | --- |
| C[C@@H](Oc1ccc2ncc3c(c2c1)CCOC3)c1cncc(-c2nc(Cl)c[nH]2)c1 [G8, (R)-9-[1-[5-(4-chloro-1H-imidazol-2-yl)-3-pyridyl]ethoxy]-2,4-dihydro-1H-pyrano[3,4 c]quinoline] | 0.008 | 19.2 | 30.2 | cytotoxicity liabilities | 0.01 (≈ 0.00407 µg/mL) | 1.3 | > 100 | > 100 |  |  |  |  |  |  |  |  |  |
| C[C@H](Nc1ccc2ncc3c(c2c1)CCOC3)C(=O)Nc1ccc(Cl)nc1 [G1, (2S)-N-(6-chloro-3-pyridyl)-2-(2,4-dihydro-1H-pyrano[3,4-c]quinolin-9 ylamino)propanamide] | 0.48 | > 100 | > 100 | low cytotoxicity | 0.2 (≈ 0.0766 µg/mL) | 0.5 | > 100 | > 100 | 6.4 × 10^−11 to 2.9 × 10^−10 | reduced the bacterial load in thigh muscle compared to pre-treatment | above 2 × Fu/MIC | 692 | fourfold |  |  |  |  |
| C[C@H](Nc1ccc2ncc(CO)cc2c1)C(=O)Nc1ccc(Cl)c(N(C)C)c1 [G2, (2S)-N-[4-chloro-3-(dimethylamino)phenyl]-2-[[3-(hydroxymethyl)-6-quinolyl]amino]propanamide] | 0.016 | > 100 | > 100 | low cytotoxicity | 0.3 (≈ 0.12 µg/mL) | 3.1 | > 100 | > 100 | 3.6 × 10^−10 to 5.1 × 10^−10 | reduced the bacterial load in thigh muscle compared to pre-treatment | 5 × Fu/MIC |  |  | 3.60E-10 | 5.10E-10 | 21300 | 100 |

Reference: paper PMC11481871, “Discovery of GuaB inhibitors with efficacy against Acinetobacter baumannii infection” (mBio, 2024)
